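Five compound concentrations were applied to cells in 96-well plates for 48 hours; endpoints were derived by simple linear interpolation of the resulting dose-response curve. Here, GI50 denotes the concentration required for 50% inhibition of growth. TGI marks complete inhibition of growth.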

Test systems include CAKI-1 renal; SF-539 CNS; HOP-62 NSCLC; HS 578T breast; SK-MEL-2 melanoma; NCI-H460 lung; RXF 393 renal; DU-145 prostate; HCC-2998 colon; M14 melanoma.
Common to all, as to test: NCI tumour cell line growth inhibition, 48 h

For the compound `COc1cc2c(c(OC)c1OC)-c1c(c3ccc([N+](=O)[O-])cc3c(=O)n1CCCN=[N+]=[N-])C2=O`, the GI50 in the assay with CAKI-1 renal was 50.3 µM; in the assay on SF-539 CNS it was 13.5 µM; with HOP-62 NSCLC, 15.4 µM; with HS 578T breast, 12.2 µM; with SK-MEL-2 melanoma it was 2.49 µM; in the assay with NCI-H460 lung, 12.3 µM. Moreover, the GI50 in the assay on RXF 393 renal was 4.81 µM; in the assay with DU-145 prostate, 71.3 µM; in the assay on HCC-2998 colon, more than 100 µM; in the assay with M14 melanoma, 34.4 µM. Also, the TGI in the assay with CAKI-1 renal is more than 100 µM; in the assay with SF-539 CNS, 43.1 µM; with HOP-62 NSCLC, 38.1 µM; in the assay with HS 578T breast, more than 100 µM; in the assay with SK-MEL-2 melanoma, 22.9 µM; with NCI-H460 lung it was more than 100 µM. Also, the TGI is 47.3 µM with RXF 393 renal, more than 100 µM in the assay on DU-145 prostate, more than 100 µM with HCC-2998 colon and more than 100 µM in the assay on M14 melanoma.

Turning to `C[As](C)SCC(COC(=O)c1ccccc1)OC(=O)c1ccccc1` (stereo not given), the GI50 with CAKI-1 renal is less than 0.0181 µM; in the assay on SF-539 CNS, 0.271 µM; in the assay on HOP-62 NSCLC, 0.742 µM; in the assay with HS 578T breast, 0.627 µM; in the assay on SK-MEL-2 melanoma, 0.4 µM; in the assay on NCI-H460 lung it was 2.21 µM. Further, the GI50 in the assay with RXF 393 renal was less than 0.0169 µM; in the assay with DU-145 prostate, 0.473 µM; in the assay with HCC-2998 colon, 0.104 µM; in the assay with M14 melanoma it was 0.0588 µM. Besides, the TGI stood at 0.0499 µM in the assay on CAKI-1 renal; 0.775 µM in the assay on SF-539 CNS; 1.86 µM with HOP-62 NSCLC; 4.45 µM with HS 578T breast; 2.8 µM with SK-MEL-2 melanoma; 12.1 µM in the assay with NCI-H460 lung. The TGI in the assay on RXF 393 renal is 0.0881 µM; with DU-145 prostate it was 4.17 µM; with HCC-2998 colon it was 0.232 µM; in the assay with M14 melanoma, 1.86 µM.

Regarding `C/C(=C1/N=C(c2ccccc2)OC1=O)c1cccs1`, the TGI in the assay on CAKI-1 renal, in the assay with SF-539 CNS, in the assay with HOP-62 NSCLC, in the assay with HS 578T breast, in the assay on SK-MEL-2 melanoma and in the assay with NCI-H460 lung was more than 100 µM throughout. In addition, the TGI in the assay with RXF 393 renal, in the assay on DU-145 prostate, in the assay on HCC-2998 colon and with M14 melanoma was more than 100 µM in each case.

On to `CCN(CC)CCC(CNc1c2ccc(Cl)cc2nc2ccc(OC)cc12)c1ccccc1` (stereo not given), for which the GI50 in the assay on CAKI-1 renal was 1.3 µM; in the assay on SF-539 CNS, 1.49 µM; with HOP-62 NSCLC, 1.16 µM; in the assay on HS 578T breast, 1.95 µM; in the assay on SK-MEL-2 melanoma, 1.76 µM; in the assay on NCI-H460 lung, 0.768 µM. In addition, the GI50 in the assay with RXF 393 renal is 1.23 µM; in the assay with DU-145 prostate, 1.32 µM; in the assay with HCC-2998 colon, 1.09 µM; in the assay with M14 melanoma, 1.78 µM. Besides, the TGI with CAKI-1 renal was 3.62 µM; with SF-539 CNS, 3.16 µM; with HOP-62 NSCLC it was 3.11 µM; with HS 578T breast, 5.44 µM; in the assay with SK-MEL-2 melanoma, 3.31 µM; with NCI-H460 lung, 3.99 µM. Further, the TGI with RXF 393 renal was found to be 2.68 µM; in the assay on DU-145 prostate it was 6.09 µM; in the assay on HCC-2998 colon it was 2.39 µM; in the assay on M14 melanoma, 3.44 µM.

On to `Nc1nc(N)c2nn(-c3ccc(C(=O)O)cc3)nc2n1`, for which the TGI in the assay with CAKI-1 renal, in the assay with SF-539 CNS, in the assay with HOP-62 NSCLC, with HS 578T breast, in the assay with SK-MEL-2 melanoma and in the assay on NCI-H460 lung was more than 100 µM in each case. The TGI in the assay on RXF 393 renal, in the assay on DU-145 prostate, in the assay with HCC-2998 colon and with M14 melanoma was more than 100 µM each time.

For the compound `CN(C)c1ccc(/C=C/C(=O)c2ccc(Nc3nc(Nc4ccc(F)cc4)nc(Nc4ccc(Cl)cc4)n3)cc2)cc1`, the GI50 with CAKI-1 renal is 14.6 µM; in the assay on SF-539 CNS, 9.58 µM; in the assay on HOP-62 NSCLC it was 9.42 µM; in the assay on HS 578T breast, 4.12 µM; in the assay on SK-MEL-2 melanoma, 4.6 µM; in the assay with NCI-H460 lung, 3.94 µM. The GI50 is 1.92 µM in the assay with RXF 393 renal, 5.5 µM in the assay on DU-145 prostate, 15.4 µM in the assay on HCC-2998 colon and 4.29 µM in the assay with M14 melanoma. For the same compound, the TGI is more than 100 µM in the assay with CAKI-1 renal; 27.2 µM in the assay on SF-539 CNS; 28.3 µM in the assay on HOP-62 NSCLC; 49.6 µM in the assay with HS 578T breast; 18.6 µM with SK-MEL-2 melanoma; 15.6 µM in the assay on NCI-H460 lung. For the same compound, the TGI with RXF 393 renal is 6.1 µM; in the assay with DU-145 prostate, 27 µM; in the assay with HCC-2998 colon, more than 100 µM; in the assay on M14 melanoma, 19.1 µM.

For the compound `CN1CCN(Cc2ccc(NC(=O)c3cncc(C#Cc4c(N)ncc5ccc(F)cc45)c3)cc2C(F)(F)F)CC1`, the GI50 is 1.06 µM with CAKI-1 renal; 0.628 µM in the assay on SF-539 CNS; 1.17 µM with HOP-62 NSCLC; 0.512 µM in the assay with HS 578T breast; 0.479 µM in the assay on SK-MEL-2 melanoma; 0.647 µM in the assay on NCI-H460 lung. Further, the GI50 with RXF 393 renal was 0.642 µM; in the assay with DU-145 prostate, 1.45 µM; in the assay on HCC-2998 colon, 0.653 µM; in the assay with M14 melanoma, 0.194 µM. Besides, the TGI with CAKI-1 renal amounted to 5.68 µM; in the assay on SF-539 CNS, 2.65 µM; in the assay with HOP-62 NSCLC it was 4.67 µM; in the assay on HS 578T breast it was 1.93 µM; with SK-MEL-2 melanoma, 2.55 µM; in the assay on NCI-H460 lung, 3.33 µM. The TGI in the assay on RXF 393 renal is 1.39 µM; in the assay on DU-145 prostate, 7.02 µM; in the assay on HCC-2998 colon, 9.66 µM; with M14 melanoma it was 0.857 µM.

Regarding `C/C=C\C(C)=C/C(C)C(=O)CC(O)CC1CC(=O)NC(=O)C1` (stereo not given), the TGI in the assay on CAKI-1 renal is more than 67.5 µM; with SF-539 CNS, more than 100 µM; in the assay with HOP-62 NSCLC, more than 100 µM; in the assay on HS 578T breast, 62.5 µM; in the assay with SK-MEL-2 melanoma it was more than 100 µM; in the assay with NCI-H460 lung, more than 100 µM. Moreover, the TGI in the assay with RXF 393 renal, in the assay on DU-145 prostate, with HCC-2998 colon and in the assay with M14 melanoma was more than 100 µM each time.

The values above are taken from PubChem BioAssay (NCI).
